Assay results: patent publication US9278940B2, “Cyclic amines as bromodomain inhibitors” (Zenith Epigenetics Corp., priority 2012, dated 2016)
Counter-ions that a name gives are not always drawn.

Experiments:
Brd4 bromodomain 1 = biological target: T1, Brd4 bromodomain 1 (Homo sapiens, UniProt O60885); test: Inhibition of tetra-acetylated histone H4 binding to BET bromodomain (TR-FRET); design: key: Active: Compounds with an IC50 value less than 30 μM were deemed to be active.; Not Active: Compounds with an IC50 value less than 30 μM were deemed to be active; conditions: Brd4 bromodomain 1, tetra-acetylated histone H4 peptide
T1 construct: made in house; host or cells: E. coli BL21(DE3)
Outline: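 N-terminally His-tagged bromodomain (200 nM, E. coli-expressed, Ni affinity and SEC purified) with biotinylated tetra-acetylated H4 peptide (25-50 nM), Eu-cryptate streptavidin and XL665 anti-His; 2 h at room temperature in HEPES pH 7.4/KF buffer, 0.2% DMSO. The 665/620 nm ratio decrease gave IC50 from dose-response curves.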

hIL-6 mRNA = test: Inhibition of hIL-6 mRNA transcription in LPS-stimulated U937 macrophages; type: cell-based, human; design: key: Active: Compounds with an IC50 value less than 30 μM are deemed to be active.; Not Active: Compounds with an IC50 value less than 30 μM are deemed to be active; conditions: U937 cells differentiated with PMA, 1 h pretreatment, LPS 3 h
Outline: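 U937 cells differentiated to macrophages with 60 ng/mL PMA for 3 days, pretreated 1 h with compound, then stimulated with 1 ug/mL E. coli LPS for 3 h at 37° C. IL-6 mRNA measured by one-step qRT-PCR, Ct normalized to internal control, expressed as fold induction relative to control.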

MV4-11 cells = test: In vivo efficacy in acute myeloid leukemia xenograft model using MV4-11 cells; design: species or system mouse; conditions: athymic nude mice, MV4-11 xenograft, oral 75 mg/kg b.i.d and 120 mg/kg b.i.d, tumor growth inhibition vs vehicle
Method: MV4-11 cells (ATCC) were grown under standard cell culture conditions and (NCr) nu/nu fisol strain of female mice age 6-7 weeks were injected 5e^6 cells/animal in 100 μl PBS+100 μl Matrigel in lower left abdominal flank. Approximately by day 18 after MV4-11 cells injection, mice were randomized based on tumor volume (L×W×H)/2) of average ^˜120 mm^3. Mice were dosed orally with compound at 75 mg/kg b.i.d and 120 mg/kg b.i.d in EA006 formulation at 10 mL/kg body weight dose volume. Tumor measurements were taken with electronic micro caliper and body weights measured on alternate days beginning from dosing period. The average tumor volumes, percent Tumor Growth Inhibition (TGI) and % change in body weights were compared relative to Vehicle control animals. The means, statistical analysis and the comparison between groups were calculated using student's t-test in Excel.

[1] = In vivo efficacy in experimental autoimmune encephalomyelitis (EAE) model of MS; design: species or system mouse; conditions: female C57Bl/6 mice, MOG35-55/CFA and pertussis toxin, 28 day preventative model
Source text: Experimental autoimmune encephalomyelitis (EAE) is a T-cell-mediated autoimmune disease of the CNS which shares many clinical and histopathological features with human multiple sclerosis (MS). EAE is the most commonly used animal model of MS. […] Cytokines IL-23, IL-6 and IL-17, which are either critical for Th1 and Th17 differentiation or produced by these T cells, play a critical and non-redundant role in EAE development. Therefore, drugs targeting production of these cytokines are likely to have therapeutic potential in treatment of MS.
This study was conducted to assess the potential anti-inflammatory effect of test compounds to inhibit the inflammation and clinical EAE scores of a 28 day preventative mouse model. In this model, EAE was induced by MOG35-55/CFA immunization and pertussis toxin injection in female C57Bl/6 mice.

FRET activity (IC50 < 30 μM) (Brd4 bromodomain 1): Active | IL-6 activity (IC50 < 30 μM) (hIL-6 mRNA): Active
SMILES: COc1cc(OC)c2c(=O)[nH]c(-c3cccc(N4CCN(C(C)C)CC4)n3)nc2c1 [Example 17, 2-(6-(4-Isopropylpiperazin-1-yl)pyridin-2-yl)-5,7-dimethoxyquinazolin-4(3H)-one Hydrochloride]
In vivo activity (MV4-11 cells): Active | In vivo activity [1]: Active
